In PMC8550792, “Evolution of kinase polypharmacology across HSP90 drug discovery” (Cell Chemical Biology, 2021):

What was measured:
382 unique human kinases [1] = biological target: T1, 382 unique human kinases (Homo sapiens, UniProt P36507); test: biochemical; format: biochemical; conditions: MEK2, 10 uM; for remaining activity at 10 µM: read-out: % Enzyme Activity (relative to DMSO controls)
T1 construct: purchased Reaction Biology (HotSpot contract assay)

382 unique human kinases [2] = biological target: T2, 382 unique human kinases (Homo sapiens, UniProt Q6P5Z2); test: biochemical; format: biochemical; conditions: kinase PKN3/PRK3, compound 10 uM; for remaining activity at 10 µM: read-out: % Enzyme Activity (relative to DMSO controls)
T2 construct: purchased Reaction Biology (HotSpot contract assay)
T2 sequence (Q6P5Z2 whole entry): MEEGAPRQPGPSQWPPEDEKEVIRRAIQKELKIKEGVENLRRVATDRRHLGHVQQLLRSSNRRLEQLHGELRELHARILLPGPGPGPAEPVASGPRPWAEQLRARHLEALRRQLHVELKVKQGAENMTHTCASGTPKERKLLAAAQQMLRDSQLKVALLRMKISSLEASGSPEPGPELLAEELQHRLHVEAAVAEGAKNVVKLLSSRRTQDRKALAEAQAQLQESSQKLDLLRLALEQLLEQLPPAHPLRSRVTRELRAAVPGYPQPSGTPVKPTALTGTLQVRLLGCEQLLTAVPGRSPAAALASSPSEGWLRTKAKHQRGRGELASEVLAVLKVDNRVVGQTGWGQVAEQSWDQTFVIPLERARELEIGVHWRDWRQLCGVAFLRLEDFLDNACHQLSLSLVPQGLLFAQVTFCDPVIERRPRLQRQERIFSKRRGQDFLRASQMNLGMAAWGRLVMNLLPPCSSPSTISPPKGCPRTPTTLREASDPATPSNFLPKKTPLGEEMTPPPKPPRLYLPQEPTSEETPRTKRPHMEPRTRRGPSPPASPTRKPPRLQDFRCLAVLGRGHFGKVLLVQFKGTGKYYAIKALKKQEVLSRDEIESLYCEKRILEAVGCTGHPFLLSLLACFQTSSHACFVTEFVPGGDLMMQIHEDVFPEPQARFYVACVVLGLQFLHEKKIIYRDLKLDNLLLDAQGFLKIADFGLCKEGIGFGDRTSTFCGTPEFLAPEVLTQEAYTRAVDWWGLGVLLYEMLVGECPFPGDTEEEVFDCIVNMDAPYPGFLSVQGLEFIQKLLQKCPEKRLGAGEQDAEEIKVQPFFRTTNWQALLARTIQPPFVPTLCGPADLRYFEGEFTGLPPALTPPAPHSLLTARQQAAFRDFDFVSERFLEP

[3] = human, in vivo; cited from earlier work
382 unique human kinases [4] = biological target: T3, 382 unique human kinases (Homo sapiens, UniProt P51813); test: biochemical; format: biochemical; conditions: BMX/ETK, [ATP] 50 µM, compound 10 uM; for remaining activity at 10 µM: read-out: % Enzyme Activity (relative to DMSO controls)
T3 construct: purchased Reaction Biology (HotSpot contract assay)
T3 sequence (P51813 1-675): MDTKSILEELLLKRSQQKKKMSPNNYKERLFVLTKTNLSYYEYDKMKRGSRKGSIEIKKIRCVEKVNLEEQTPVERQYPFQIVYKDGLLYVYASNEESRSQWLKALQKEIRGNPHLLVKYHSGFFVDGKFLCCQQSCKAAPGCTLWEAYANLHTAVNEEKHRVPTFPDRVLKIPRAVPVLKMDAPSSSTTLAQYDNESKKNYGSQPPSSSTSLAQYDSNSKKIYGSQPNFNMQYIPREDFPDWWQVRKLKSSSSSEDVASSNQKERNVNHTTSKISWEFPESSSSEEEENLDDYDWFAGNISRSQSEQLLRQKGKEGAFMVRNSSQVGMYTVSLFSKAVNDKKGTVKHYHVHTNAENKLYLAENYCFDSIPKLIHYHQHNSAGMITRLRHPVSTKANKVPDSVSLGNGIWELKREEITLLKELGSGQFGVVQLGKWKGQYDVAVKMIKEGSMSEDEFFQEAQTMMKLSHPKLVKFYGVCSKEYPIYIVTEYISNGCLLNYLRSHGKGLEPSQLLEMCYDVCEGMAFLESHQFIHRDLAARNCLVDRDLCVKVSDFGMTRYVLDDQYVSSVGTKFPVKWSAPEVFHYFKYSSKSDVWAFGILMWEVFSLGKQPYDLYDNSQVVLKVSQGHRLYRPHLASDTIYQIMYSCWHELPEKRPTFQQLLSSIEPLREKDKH

382 unique human kinases [5] = biological target: T4, 382 unique human kinases (Homo sapiens, UniProt Q9P1W9); test: biochemical; format: biochemical; conditions: PIM2, [ATP] 20 µM, compound 10 uM; for remaining activity at 10 µM: read-out: % Enzyme Activity (relative to DMSO controls)
T4 construct: purchased Reaction Biology (HotSpot contract assay)
T4 sequence (Q9P1W9 whole entry): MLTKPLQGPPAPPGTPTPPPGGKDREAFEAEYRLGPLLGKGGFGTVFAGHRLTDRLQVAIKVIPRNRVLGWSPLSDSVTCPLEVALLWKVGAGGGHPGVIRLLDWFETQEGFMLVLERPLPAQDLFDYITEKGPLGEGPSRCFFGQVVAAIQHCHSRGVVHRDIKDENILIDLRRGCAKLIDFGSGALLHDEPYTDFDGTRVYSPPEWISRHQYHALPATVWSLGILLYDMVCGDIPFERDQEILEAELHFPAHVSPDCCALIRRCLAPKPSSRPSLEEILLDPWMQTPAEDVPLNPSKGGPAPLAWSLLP

HSP90B1 = test system: HSP90B1; design: method as in ChEMBL23 (accessed: 23/08/2018); conditions: average of reported values; ref ChEMBL23 (accessed: 23/08/2018); cited from earlier work
ABL1 = ABL1 (Homo sapiens, UniProt P00519); test: NanoBRET intracellular target engagement
Sequence of ABL1 (P00519 whole entry): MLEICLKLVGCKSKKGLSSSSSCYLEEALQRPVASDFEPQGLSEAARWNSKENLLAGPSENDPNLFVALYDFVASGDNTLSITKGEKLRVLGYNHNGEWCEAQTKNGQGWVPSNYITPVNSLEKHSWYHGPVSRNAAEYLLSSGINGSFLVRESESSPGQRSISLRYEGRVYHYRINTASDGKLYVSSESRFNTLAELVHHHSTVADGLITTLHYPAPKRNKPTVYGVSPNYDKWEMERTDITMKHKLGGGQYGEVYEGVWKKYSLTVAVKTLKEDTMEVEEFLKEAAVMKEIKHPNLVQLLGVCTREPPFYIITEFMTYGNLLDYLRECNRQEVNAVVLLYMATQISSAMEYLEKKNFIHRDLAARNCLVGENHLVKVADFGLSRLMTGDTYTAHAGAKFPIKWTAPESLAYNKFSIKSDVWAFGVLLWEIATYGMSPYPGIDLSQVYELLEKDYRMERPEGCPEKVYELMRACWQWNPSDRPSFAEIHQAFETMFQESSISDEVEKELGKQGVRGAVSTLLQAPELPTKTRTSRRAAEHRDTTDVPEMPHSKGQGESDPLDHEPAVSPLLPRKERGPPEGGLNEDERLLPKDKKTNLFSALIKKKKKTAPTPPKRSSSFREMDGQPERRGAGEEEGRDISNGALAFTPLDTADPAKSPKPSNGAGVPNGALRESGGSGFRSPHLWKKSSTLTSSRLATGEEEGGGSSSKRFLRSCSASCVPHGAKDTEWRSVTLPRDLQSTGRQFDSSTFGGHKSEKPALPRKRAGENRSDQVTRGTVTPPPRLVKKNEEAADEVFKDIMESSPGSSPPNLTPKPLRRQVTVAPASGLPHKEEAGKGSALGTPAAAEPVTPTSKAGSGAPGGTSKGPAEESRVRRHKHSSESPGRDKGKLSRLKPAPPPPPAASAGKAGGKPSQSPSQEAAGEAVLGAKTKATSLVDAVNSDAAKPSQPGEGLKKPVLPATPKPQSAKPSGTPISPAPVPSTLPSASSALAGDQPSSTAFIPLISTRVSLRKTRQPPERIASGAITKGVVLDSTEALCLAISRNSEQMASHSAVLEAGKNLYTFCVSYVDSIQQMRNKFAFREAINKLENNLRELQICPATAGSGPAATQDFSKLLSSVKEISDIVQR

DDR1 = DDR1 (Homo sapiens, UniProt Q08345); test: NanoBRET intracellular target engagement
TRAP1 = test system: TRAP1; design: method as in ChEMBL23 (accessed: 23/08/2018); conditions: average of reported values; ref ChEMBL23 (accessed: 23/08/2018); cited from earlier work
HSP90AA1 = conditions: cited from earlier work; for pActivity, HSP90AA1: average of reported values, ref ChEMBL23 (accessed: 23/08/2018)
382 unique human kinases [6] = biological target: T5, 382 unique human kinases (Homo sapiens, UniProt P04626, D769H); test: biochemical; format: biochemical; conditions: ERBB2 (D769H), 10 uM
T5 construct: purchased Reaction Biology (HotSpot contract assay)

382 unique human kinases [7] = biological target: T6, 382 unique human kinases (Homo sapiens, UniProt P15056, V600K); test: biochemical; format: biochemical; conditions: BRAF (V600K), 10 uM
T6 construct: purchased Reaction Biology (HotSpot contract assay)

382 unique human kinases [8] = biological target: T7, 382 unique human kinases (Homo sapiens, UniProt P00519, V299L); test: biochemical; format: biochemical; conditions: ABL1 (V299L), [ATP] 5 µM, compound 10 uM
T7 construct: purchased Reaction Biology (HotSpot contract assay)
T7 sequence (P00519 whole entry V299L): as the sequence (P00519 whole entry) above, with V299L counted along it

382 unique human kinases [9] = biological target: T8, 382 unique human kinases (Homo sapiens, UniProt P15056, G464V); test: biochemical; format: biochemical; conditions: BRAF (G464V), 10 uM
T8 construct: purchased Reaction Biology (HotSpot contract assay)

382 unique human kinases [10] = biological target: T9, 382 unique human kinases (Homo sapiens, UniProt P00533, C797A); test: biochemical; format: biochemical; conditions: EGFR (C797A), 10 uM
T9 construct: purchased Reaction Biology (HotSpot contract assay)

382 unique human kinases [11] = biological target: T10, 382 unique human kinases (Homo sapiens, UniProt P19784); test: biochemical; format: biochemical; conditions: CK2a2, 10 uM
T10 construct: purchased Reaction Biology (HotSpot contract assay)
T10 sequence (P19784 whole entry): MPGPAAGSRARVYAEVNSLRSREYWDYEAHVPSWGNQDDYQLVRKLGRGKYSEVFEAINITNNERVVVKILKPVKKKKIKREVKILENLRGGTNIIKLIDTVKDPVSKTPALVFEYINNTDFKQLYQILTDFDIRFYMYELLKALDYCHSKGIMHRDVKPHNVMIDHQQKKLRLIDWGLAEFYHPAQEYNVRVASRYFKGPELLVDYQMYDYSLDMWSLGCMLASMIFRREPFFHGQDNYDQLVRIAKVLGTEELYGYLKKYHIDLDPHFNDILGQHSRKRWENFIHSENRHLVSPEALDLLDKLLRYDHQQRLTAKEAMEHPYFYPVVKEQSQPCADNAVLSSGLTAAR

382 unique human kinases [12] = biological target: T11, 382 unique human kinases (Homo sapiens, UniProt Q9BWU1); test: biochemical; format: biochemical; conditions: CDK19/cyclin C, 10 uM
T11 construct: purchased Reaction Biology (HotSpot contract assay)

382 unique human kinases [13] = biological target: T12, 382 unique human kinases (Homo sapiens, UniProt P15056, V600D); test: biochemical; format: biochemical; conditions: BRAF (V600D), 10 uM
T12 construct: purchased Reaction Biology (HotSpot contract assay)

LCK = biological target: T13, LCK (Homo sapiens, UniProt P06239); test: HotSpot in vitro kinase radiometric assay; format: biochemical; conditions: for inhibition at 10 µM: read-out: % inhibition at 10 uM: LCK, Fig 6C median ± standard deviation (n = 2)
T13 construct: purchased Reaction Biology (HotSpot contract assay)
T13 sequence (P06239 whole entry): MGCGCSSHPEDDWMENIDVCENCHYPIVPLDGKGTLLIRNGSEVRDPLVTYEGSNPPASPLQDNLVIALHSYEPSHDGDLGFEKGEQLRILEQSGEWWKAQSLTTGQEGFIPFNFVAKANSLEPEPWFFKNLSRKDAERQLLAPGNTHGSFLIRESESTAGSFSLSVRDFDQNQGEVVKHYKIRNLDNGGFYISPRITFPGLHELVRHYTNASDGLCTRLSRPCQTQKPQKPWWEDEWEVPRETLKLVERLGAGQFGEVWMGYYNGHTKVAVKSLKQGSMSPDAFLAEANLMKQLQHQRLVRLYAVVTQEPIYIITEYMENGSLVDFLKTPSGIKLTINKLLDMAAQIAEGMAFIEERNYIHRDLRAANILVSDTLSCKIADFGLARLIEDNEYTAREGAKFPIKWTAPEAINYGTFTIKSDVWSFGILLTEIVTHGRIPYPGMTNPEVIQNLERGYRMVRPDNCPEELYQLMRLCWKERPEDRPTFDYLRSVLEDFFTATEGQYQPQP

FGR = biological target: T14, FGR (Homo sapiens, UniProt P09769); test: HotSpot in vitro kinase radiometric assay; format: biochemical; conditions: for inhibition at 10 µM: read-out: % inhibition at 10 uM: FGR, Fig 6C median ± standard deviation (n = 2)
T14 construct: purchased Reaction Biology (HotSpot contract assay)
T14 sequence (P09769 whole entry): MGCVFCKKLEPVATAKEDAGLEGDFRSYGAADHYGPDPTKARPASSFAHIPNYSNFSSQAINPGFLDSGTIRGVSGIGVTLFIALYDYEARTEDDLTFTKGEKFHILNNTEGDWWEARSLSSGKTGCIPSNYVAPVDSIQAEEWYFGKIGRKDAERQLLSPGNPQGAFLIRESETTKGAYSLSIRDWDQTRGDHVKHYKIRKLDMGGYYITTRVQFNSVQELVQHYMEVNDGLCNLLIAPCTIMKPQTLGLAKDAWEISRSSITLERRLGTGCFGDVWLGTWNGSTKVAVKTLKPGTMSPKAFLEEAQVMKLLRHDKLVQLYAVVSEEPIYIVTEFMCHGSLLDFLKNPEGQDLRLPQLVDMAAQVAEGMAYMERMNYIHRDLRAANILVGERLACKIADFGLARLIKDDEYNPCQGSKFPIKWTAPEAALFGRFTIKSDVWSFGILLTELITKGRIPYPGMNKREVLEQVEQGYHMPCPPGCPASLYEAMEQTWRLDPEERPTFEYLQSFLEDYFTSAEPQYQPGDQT

YES/YES1 = biological target: T15, YES/YES1 (Homo sapiens, UniProt P07947); test: HotSpot in vitro kinase radiometric assay; format: biochemical; conditions: for inhibition at 10 µM: read-out: % inhibition at 10 uM: YES, Fig 6C median ± standard deviation (n = 2)
T15 construct: purchased Reaction Biology (HotSpot contract assay)
T15 sequence (P07947 whole entry): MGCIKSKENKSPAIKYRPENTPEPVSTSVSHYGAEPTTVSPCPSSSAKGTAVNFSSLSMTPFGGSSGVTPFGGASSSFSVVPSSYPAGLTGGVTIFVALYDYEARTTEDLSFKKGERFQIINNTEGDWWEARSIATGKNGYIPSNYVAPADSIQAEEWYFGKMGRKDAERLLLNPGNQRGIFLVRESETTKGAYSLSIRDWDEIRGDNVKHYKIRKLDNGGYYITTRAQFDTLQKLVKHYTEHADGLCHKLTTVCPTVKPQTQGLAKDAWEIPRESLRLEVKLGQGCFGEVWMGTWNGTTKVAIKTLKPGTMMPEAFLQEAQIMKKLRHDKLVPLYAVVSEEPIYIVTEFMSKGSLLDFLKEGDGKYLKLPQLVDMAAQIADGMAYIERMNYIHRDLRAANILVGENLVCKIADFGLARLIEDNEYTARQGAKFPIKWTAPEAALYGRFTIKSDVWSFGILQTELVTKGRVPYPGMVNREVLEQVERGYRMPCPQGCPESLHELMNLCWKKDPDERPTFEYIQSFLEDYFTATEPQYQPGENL

382 unique human kinases [14] = biological target: T16, 382 unique human kinases (Homo sapiens, UniProt P07947, T348I); test: biochemical; format: biochemical; conditions: YES1 (T348I), compound at 10 uM, duplicate values
T16 construct: purchased Reaction Biology (HotSpot contract assay)

382 unique human kinases [15] = biological target: T17, 382 unique human kinases (Homo sapiens, UniProt P00533, C797S/L858R/T790M); test: biochemical; format: biochemical; conditions: EGFR (T790M/C797S/L858R), compound at 10 uM, duplicate values
T17 construct: purchased Reaction Biology (HotSpot contract assay)

[16] = read-out: % Enzyme Activity (relative to DMSO controls)

T1 sequence (P36507 whole entry): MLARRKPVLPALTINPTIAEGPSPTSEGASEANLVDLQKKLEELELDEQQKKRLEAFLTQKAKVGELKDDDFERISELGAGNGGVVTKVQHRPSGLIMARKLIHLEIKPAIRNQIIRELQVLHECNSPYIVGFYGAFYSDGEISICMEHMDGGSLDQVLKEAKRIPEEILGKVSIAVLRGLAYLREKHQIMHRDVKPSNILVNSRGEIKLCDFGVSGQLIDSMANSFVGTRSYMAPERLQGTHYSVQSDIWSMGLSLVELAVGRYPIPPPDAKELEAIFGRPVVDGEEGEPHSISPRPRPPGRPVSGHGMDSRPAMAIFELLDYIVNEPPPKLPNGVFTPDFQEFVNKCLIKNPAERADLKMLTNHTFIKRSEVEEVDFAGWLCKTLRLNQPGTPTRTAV

CC(C)c1cc(-c2n[nH]c(=O)n2-c2ccc3c(ccn3C)c2)c(O)cc1O [Ganetespib (STA9090)]
remaining activity at 10 µM (382 unique human kinases [1]): 61.1% | remaining activity at 10 µM (382 unique human kinases [2]): 83.9%

CC(C)c1cc(-c2n[nH]c(=O)n2-c2ccc3c(ccn3C)c2)c(O)cc1O [Ganetespib]
Cmax,total [3]: 6 to 12 µM | remaining activity at 10 µM (382 unique human kinases [4]): 46.7% | remaining activity at 10 µM (382 unique human kinases [5]): 28.8% | pActivity, HSP90B1 (HSP90B1): 8 | EC50 (ABL1): 82.9 µM | remaining activity at 100 µM (ABL1; HEK293, read-out: %Normalized Bret Response, ABL1 NanoBRET, HEK293, Drug Conc. 0.0001 M): 41.3% | EC50 (DDR1): 75.5 µM | remaining activity at 100 µM (DDR1; HEK293, read-out: %Normalized Bret Response, DDR1 NanoBRET, HEK293, Drug Conc. 0.0001 M): 37.5% | pActivity, TRAP1 (TRAP1): 7.29

CCNC(=O)c1noc(-c2cc(C(C)C)c(O)cc2O)c1-c1ccc(CN2CCOCC2)cc1 [Luminespib]
pActivity, HSP90AA1 (HSP90AA1): 8.01 | % Enzyme Activity (relative to DMSO controls) (382 unique human kinases [6]): 99.65% | remaining activity at 10 µM (382 unique human kinases [6]; [16]): 102% | % Enzyme Activity (relative to DMSO controls) (382 unique human kinases [4]): 102.71% | remaining activity at 10 µM (382 unique human kinases [4]): 103% | % Enzyme Activity (relative to DMSO controls) (382 unique human kinases [5]): 103.60% | remaining activity at 10 µM (382 unique human kinases [5]): 106% | % Enzyme Activity (relative to DMSO controls) (382 unique human kinases [7]): 98.47% | remaining activity at 10 µM (382 unique human kinases [7]; [16]): 99.2% | % Enzyme Activity (relative to DMSO controls) (382 unique human kinases [8]): 31.43% | remaining activity at 10 µM (382 unique human kinases [8]; [16]): 31.8% | % Enzyme Activity (relative to DMSO controls) (382 unique human kinases [9]): 97.60% | remaining activity at 10 µM (382 unique human kinases [9]; [16]): 97.9% | % Enzyme Activity (relative to DMSO controls) (382 unique human kinases [10]): 99.37% | remaining activity at 10 µM (382 unique human kinases [10]; [16]): 102% | % Enzyme Activity (relative to DMSO controls) (382 unique human kinases [11]): 108.66% | remaining activity at 10 µM (382 unique human kinases [11]; [16]): 111% | % Enzyme Activity (relative to DMSO controls) (382 unique human kinases [12]): 95.24% | remaining activity at 10 µM (382 unique human kinases [12]; [16]): 96.2% | % Enzyme Activity (relative to DMSO controls) (382 unique human kinases [13]): 98.35% | remaining activity at 10 µM (382 unique human kinases [13]; [16]): 100% | inhibition at 10 µM (LCK): 40 ± 2% | inhibition at 10 µM (FGR): 66 ± 1% | pActivity, TRAP1 (TRAP1): 7.67 | inhibition at 10 µM (YES/YES1): 49 ± 2%

CCNC(=O)c1noc(-c2cc(C(C)C)c(O)cc2O)c1-c1ccc(CN2CCOCC2)cc1 [Luminespib (AUY-922)]
% Enzyme Activity (relative to DMSO controls) (382 unique human kinases [14]): 101.23% | remaining activity at 10 µM (382 unique human kinases [14]; [16]): 103% | % Enzyme Activity (relative to DMSO controls) (382 unique human kinases [15]): 100.18% | remaining activity at 10 µM (382 unique human kinases [15]; [16]): 100% | % Enzyme Activity (relative to DMSO controls) (382 unique human kinases [1]): 98.43% | remaining activity at 10 µM (382 unique human kinases [1]): 99.5% | % Enzyme Activity (relative to DMSO controls) (382 unique human kinases [2]): 102.60% | remaining activity at 10 µM (382 unique human kinases [2]): 104%

CCNC(=O)c1noc(-c2cc(Cl)c(O)cc2O)c1-c1ccc(OC)cc1 [VER-50589]
IC50 (HSP90AA1; Fig 6C, IC50 against HSP90 shown for comparison, source not given): 0.021 µM | pActivity, HSP90AA1 (HSP90AA1): 7.55 | % Enzyme Activity (relative to DMSO controls) (LCK; LCK, 10uM, ATP 15 uM, Data 1, Data 2): 102.22% | remaining activity at 10 µM (LCK; LCK, 10uM, ATP 15 uM, Data 1, Data 2, read-out: % Enzyme Activity (relative to DMSO controls)): 111% | inhibition at 10 µM (LCK): -6 ± 6% | % Enzyme Activity (relative to DMSO controls) (FGR; FGR, 10uM, ATP 50 uM, Data 1, Data 2): 109.55% | remaining activity at 10 µM (FGR; FGR, 10uM, ATP 50 uM, Data 1, Data 2, read-out: % Enzyme Activity (relative to DMSO controls)): 104% | inhibition at 10 µM (FGR): -7 ± 4% | % Enzyme Activity (relative to DMSO controls) (YES/YES1; YES/YES1, 10uM, ATP 50 uM, Data 1, Data 2): 96.18% | remaining activity at 10 µM (YES/YES1; YES/YES1, 10uM, ATP 50 uM, Data 1, Data 2, read-out: % Enzyme Activity (relative to DMSO controls)): 102% | inhibition at 10 µM (YES/YES1): 1 ± 4%
